System: Jurkat cells
Details: Jurkat cells dyed with 50 μM reagent in PBS; UV 365 nm 10 minutes vs no UV
Experimental: 1 mL of Jurkat cells 3.0×10^6 cells/PBS (−), the Jurkat cells being human leukemia T cell lines, was prepared in a 1.5 mL Eppendorf tube, and centrifuged at 200×g for five minutes. The supernatant was removed, and 1 mL of a 50 μM MeNPOC-biotin-sulfo-NHS ester.Na/PBS solution was added thereto. The mixture was shielded from light by an aluminum foil, and allowed to stand at room temperature for 20 minutes. The mixture was centrifuged at 200×g for five minutes, and the supernatant was removed. The residue was resuspended in 1 mL of PBS (−) and centrifuged again at 200×g for five minutes, and the supernatant was removed. PBS (−) was added thereto, and the cell concentration was measured with a cell counter, and then the concentration was adjusted to 1.5×10^5 cells/mL. The cells were added dropwise at 0.1 mL/well to a COC film bottom 96 well plate that had been soaked with 1% BSA overnight, and centrifuged at 120×g for one minute to precipitate the cells on a well bottom surface. Subsequently, the sample was irradiated with UV light from the well bottom surface side for 10 minutes using a UV-LED (LED 365-SPT, Optocode, λp=365 nm, about 17 mW/cm^2). As a comparison, a sample not irradiated with UV light was allowed to stand for 10 minutes. The cell suspension was collected from the wells, and PBS was added thereto to adjust the volume to 0.8 mL. […]

## MeNPOC-biotin-sulfo-NHS ester sodium salt
  fluorescence intensity (adsorption of Alexa Fluor 488 labeled streptavidin): fluorescence intensity changed depending on presence or absence of UV irradiation

— US20220170859A1, “PARTICLE LABELING REAGENT, PARTICLE DYEING METHOD, AND MICROSCOPIC SYSTEM” (SONY GROUP CORPORATION, priority 2019, published 2022)
